# Test results from US8623913B2, “Methods for treating restless legs syndrome” (priority 2010, dated 2014).
# “Also recorded” adds a separate entry of the source.
# Assays:
# [1] = tested on: homozygous mutant dopamine transporter knockout (KO) mice; experiment: Spontaneous activity in the open field, dopamine transporter KO mice; format: in vivo
# Method: Male and female wild-type and homozygous mutant dopamine transporter KO mice (n˜10 mice/genotype/agent; produced by in vivo homologous recombination and bred at Duke University Medical Center, Durham, N.C.) were tested for spontaneous activity in the open field following a single injection of the vehicle or compound. […] All drugs were given in a volume of 5 mL/kg. Animals were returned to the open field for an additional 90 min. Spontaneous activity was evaluated in an automated Omnitech Digiscan apparatus (Accuscan Instruments, Columbus, Ohio). Activity was summated at 5 min intervals over the 2 h period of testing. Horizontal activity or locomotion was measured in terms of the total distance covered in cm, vertical activity or rearing was expressed in terms of the total numbers of vertical beam breaks, and stereotypy was quantified in terms of repetitive breaks of a given beam or beams with intervals of less than 1 sec. For the analyses, 10 WT and 10 KO mice were run in each of the treatment groups with approximately equal numbers of males and females assigned to each group. Data were analyzed by the Statistical Package for Social Sciences programs (version 11.0 for Windows; SPSS Science, Chicago, Ill.). The results for each dependent variable were analyzed by repeated analyses of variance (RMANOVA) for within subjects effects (group differences over time) and between-subjects effects (tests of main effects and interactions). Bonferroni corrected pair-wise comparisons were used as the post-hoc tests. A p<0.05 was considered significant.
# wild-type mice = experiment: Spontaneous activity in the open field, wild-type mice; format: in vivo; conditions: WT mice; 2 mg/kg SC
# Method: Male and female wild-type and homozygous mutant dopamine transporter KO mice (n˜10 mice/genotype/agent; produced by in vivo homologous recombination and bred at Duke University Medical Center, Durham, N.C.) were tested for spontaneous activity in the open field following a single injection of the vehicle or compound. Mice were placed into the open field for 30 min and administered SC the vehicle (sterile water), 2 mg/kg amphetamine, or three concentrations of the test compound (10, 30, 100 mg/kg). All drugs were given in a volume of 5 mL/kg. Animals were returned to the open field for an additional 90 min. Spontaneous activity was evaluated in an automated Omnitech Digiscan apparatus (Accuscan Instruments, Columbus, Ohio). […] Horizontal activity or locomotion was measured in terms of the total distance covered in cm, vertical activity or rearing was expressed in terms of the total numbers of vertical beam breaks, and stereotypy was quantified in terms of repetitive breaks of a given beam or beams with intervals of less than 1 sec. […] Data were analyzed by the Statistical Package for Social Sciences programs (version 11.0 for Windows; SPSS Science, Chicago, Ill.). The results for each dependent variable were analyzed by repeated analyses of variance (RMANOVA) for within subjects effects (group differences over time) and between-subjects effects (tests of main effects and interactions). […]
# [2] = tested on: hypocretin cell ablated narcoleptic mice (prepororexin/ataxin-3 transgenic); experiment: Sleep parameters (EEG/EMG) in narcoleptic mice; format: in vivo; conditions: for Duration of continuous wakefulness: resting period (ZT 2)
# Description: (§1) The polygraph signal (EEG (electroencephalography) and EMG (electromyography)) was captured with SleepSign (Kissei Comtech), and the sleep stage was visually scored with 10 sec epoch for wakefulness, non-REM sleep and REM sleep. Scoring criteria are: Wakefulness is characterized by desynchronized low-amplitude, mixed frequency (>4 Hz) EEG and high EMG activity. Rhythmic alpha (8-9 Hz) wave (with high EMG activities) may also appear. Non-REM is characterized by synchronized, high-amplitude, low-frequency (0.25-4 Hz) with reduced EMG activity (compared to wakefulness). EEG activity in REM sleep is similar to that in wakefulness, with desynchronized, mixed frequency low amplitude waves. Rhythmic alpha (8-9 Hz) wave with reduced EMG activities may also appear. […] activity during REM sleep is reduced even further and in many cases, completely absent. Some muscle twitching may be apparent in the EMG trace during REM sleep.
# (§2) Three drug doses of the test compound (50, 100 and 150 mg/kg PO) plus vehicle, was orally administered at ZT 2 (Zeitgeber time: 2 hours after light on) or ZT14 (Zeitgeber time: 2 hours after light off) and the effects on sleep was monitored for 6 hours after the drug administration (the sleep data was collected for 30 hours after the drug injection, and are available for further analysis). The doses for modafinil were 50 and 200 mg/kg PO (plus vehicle), and modafinil was also administered at ZT 2 and ZT 14.
# (§3) If the polygraph signals of some mice were not sufficient to score the sleep stage with accuracy (especially bad EMG), data from these animals were excluded, and the minimum of 5 animals (except for the highest dose of the test compound in wild-type mice in dark period, n=4) were included for the data analysis and number of animals were indicated in the figures.
# (§4) Effects of test compound and modafinil on the amount of wake, non-REM sleep, REM sleep (cumulative seconds), number of episodes for each sleep stage during 6 hours, mean wake/sleep-bout lengths (seconds) were analyzed in each animal and the mean of each parameter was calculated in each genotype. The effects of compounds on wake and sleep amounts are useful to evaluate the wake promoting potency, and the number of episodes for each sleep stage and the mean wake/sleep bout length are parameters for evaluating the sleep fragmentation. Amphetamine and modafinil, two main wake-promoting compounds currently used for the treatment of EDS associated with various etiologies (narcolepsy, idiopathic hypersomnia and secondary EDS), are known to increase wake time and prolong wake bout length in normal and EDS conditions.
# (§5) A comparison of the effects between hypocretin deficient and wild-type mice is very useful in determining if the wake-promotion of the test compound is dependent on the availability of hypocretins, and if there is a possible change in the sensitivity of the receptive mechanisms of test compound in narcoleptic mice due to the hypocretin ligand deficiency.
# [3] = target: T1, hDAT (human dopamine transporter) (Homo sapiens, UniProt Q01959); experiment: Inhibition of [125I]RTI-55 radioligand binding to hDAT in HEK293 cell membranes
# T1 construct: expressed in transfected cells; host or cells: HEK293 cells (ATCC), clonal, kept under puromycin selection
# T1 sequence (Q01959 whole entry): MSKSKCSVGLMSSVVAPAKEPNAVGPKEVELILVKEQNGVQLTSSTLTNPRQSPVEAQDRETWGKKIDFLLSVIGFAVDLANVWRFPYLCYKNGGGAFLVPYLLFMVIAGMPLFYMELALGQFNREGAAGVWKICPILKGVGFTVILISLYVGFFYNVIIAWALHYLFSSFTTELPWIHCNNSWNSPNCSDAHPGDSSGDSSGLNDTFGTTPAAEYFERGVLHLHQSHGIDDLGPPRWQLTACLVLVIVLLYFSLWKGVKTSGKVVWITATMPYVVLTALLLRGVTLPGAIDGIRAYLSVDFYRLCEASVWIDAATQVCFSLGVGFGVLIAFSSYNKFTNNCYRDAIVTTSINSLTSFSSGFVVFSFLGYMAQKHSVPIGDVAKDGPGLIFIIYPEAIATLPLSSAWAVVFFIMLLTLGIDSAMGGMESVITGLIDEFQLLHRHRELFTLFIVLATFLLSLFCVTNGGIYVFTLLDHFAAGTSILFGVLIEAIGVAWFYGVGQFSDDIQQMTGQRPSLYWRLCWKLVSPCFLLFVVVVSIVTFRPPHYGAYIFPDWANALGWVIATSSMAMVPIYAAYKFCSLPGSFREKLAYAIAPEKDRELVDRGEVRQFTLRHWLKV
# [4] = target: T2, hSERT (human serotonin transporter) (Homo sapiens, UniProt P31645); experiment: Inhibition of [125I]RTI-55 radioligand binding to hSERT in HEK293 cell membranes
# T2 construct: expressed in transfected cells; host or cells: HEK293 cells (ATCC), clonal, kept under puromycin selection
# T2 sequence (P31645 whole entry): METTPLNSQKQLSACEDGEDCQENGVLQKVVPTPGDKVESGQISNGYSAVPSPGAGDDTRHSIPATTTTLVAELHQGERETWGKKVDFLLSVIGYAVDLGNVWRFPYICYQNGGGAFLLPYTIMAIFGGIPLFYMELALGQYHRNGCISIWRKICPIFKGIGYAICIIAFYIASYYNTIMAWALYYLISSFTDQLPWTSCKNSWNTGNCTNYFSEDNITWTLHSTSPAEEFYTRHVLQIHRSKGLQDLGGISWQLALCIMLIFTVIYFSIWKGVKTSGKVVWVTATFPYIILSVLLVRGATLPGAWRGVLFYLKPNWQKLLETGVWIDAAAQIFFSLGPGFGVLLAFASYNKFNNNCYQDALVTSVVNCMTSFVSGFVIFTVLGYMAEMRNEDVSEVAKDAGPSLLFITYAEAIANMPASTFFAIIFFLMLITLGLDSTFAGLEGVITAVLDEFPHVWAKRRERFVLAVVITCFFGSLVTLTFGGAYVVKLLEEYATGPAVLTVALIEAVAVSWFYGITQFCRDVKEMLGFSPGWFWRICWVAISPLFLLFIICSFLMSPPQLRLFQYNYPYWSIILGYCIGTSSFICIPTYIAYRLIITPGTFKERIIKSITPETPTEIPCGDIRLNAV
# [5] = target: T3, hNET (human norepinephrine transporter) (Homo sapiens, UniProt P23975); experiment: biochemical; format: binding; conditions: HEK-hNET cells, mean ± SEM
# T3 construct: expressed in transfected cells; host or cells: HEK293 cells (ATCC), clonal, kept under geneticin selection
# T3 sequence (P23975 whole entry): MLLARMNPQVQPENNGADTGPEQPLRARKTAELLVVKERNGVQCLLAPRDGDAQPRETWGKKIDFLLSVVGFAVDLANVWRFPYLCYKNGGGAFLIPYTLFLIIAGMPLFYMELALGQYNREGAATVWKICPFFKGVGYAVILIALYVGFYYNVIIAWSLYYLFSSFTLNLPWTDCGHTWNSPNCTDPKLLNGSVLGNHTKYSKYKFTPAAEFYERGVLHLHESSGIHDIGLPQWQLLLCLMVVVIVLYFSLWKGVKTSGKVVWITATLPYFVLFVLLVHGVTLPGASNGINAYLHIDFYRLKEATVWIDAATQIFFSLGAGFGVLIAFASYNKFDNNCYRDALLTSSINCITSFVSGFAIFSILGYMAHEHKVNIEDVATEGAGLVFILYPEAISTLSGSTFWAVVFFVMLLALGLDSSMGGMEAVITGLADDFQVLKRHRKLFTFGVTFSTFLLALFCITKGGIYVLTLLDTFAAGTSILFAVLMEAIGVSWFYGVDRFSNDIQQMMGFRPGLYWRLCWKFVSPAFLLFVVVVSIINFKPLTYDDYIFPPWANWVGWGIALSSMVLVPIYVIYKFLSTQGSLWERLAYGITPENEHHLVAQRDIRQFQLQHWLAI
# [6] = target: T1, hDAT (human dopamine transporter); experiment: Filtration assay for inhibition of [3H]dopamine uptake in HEK-hDAT cells; format: cell-based
# [7] = target: T3, hNET (human norepinephrine transporter); experiment: cell-based; conditions: HEK-hNET cells; mean ± SEM; read-out: [3H]NE Uptake IC50
# [8] = tested on: rats with sciatic nerve ligation; experiment: Thermal hyperalgesia (hindpaw withdrawal latency, plantar tester) in rats with sciatic nerve ligation; format: in vivo, Sprague-Dawley rats; conditions: 30 mg/kg IP; for Mean paw withdrawal latency: n = 6, mean ± SEM
# Method: Young adult male Sprague-Dawley rats (CD(SD)IGS, 150-200 g) were initially anesthetized with isoflurane in O2 by a mask and the surgical procedure was performed according to the method described by Bennett and Xie (1988). Briefly, the right sciatic nerves were loosely tied using ligatures. All experiments were conducted in accordance with the guidelines of the International Association for the Study of Pain. The behavioral tests were conducted at least 14 days postoperatively.
# The test compound was dissolved in saline and administered intraperitoneally at 30 mg/kg to animals in a volume of 3 mL/kg body weight.
# To test for thermal hyperalgesia, the thermal response was determined by the hindpaw withdrawal latency, using a plantar tester (UGO BASILE, Italy), and a modified method of Hargreaves et al. (1988). Rats were allowed to acclimate within plastic enclosures on a clear glass plate maintained at room temperature. A radiant heat source (intensity 90) was controlled with a timer and focused onto the plantar surface of the rat right hind paw encompassing the glabrous skin. Paw withdrawal stopped both heat source and timer. A maximal cut-off 30 sec was used to prevent tissue damage. Rats were assessed for thermal hyperalgesia predose (0 hr) and at 1, 4 and 8 hours after 30 mg/kg test compound administration.
# Data are expressed as mean±standard error of mean (SEM). The values of behavioral signs of neuropathic pain at various postoperative time points were compared with those of the preoperative control period by a repeated-measure One-way Analysis of Variance (followed by Dunnett's post-hoc test). P-values less than 0.05 were considered to be significant.
# [9] = tested on: littermate wild-type mice; experiment: Sleep parameters (EEG/EMG) in littermate wild-type mice; format: in vivo; conditions: for Duration of continuous wakefulness: resting period (ZT 2)
# Description: as §1, §2, §3, §4, §5
# [10] = resting period, PO, genotypes not separated
compound,measurement,setting,value
"CC(N)Cc1ccccc1 (stereo not drawn) [Amphetamine, reference compound]","Locomotor, rearing and stereotypical activities relative to vehicle controls",[1]; 2 mg/kg SC,decreased
same,"Locomotor, rearing and stereotypical activities relative to vehicle controls",wild-type mice,increased
"NC(=O)C[S+]([O-])C(c1ccccc1)c1ccccc1 (stereo not drawn) [modafinil, reference compound]",Wake amount versus wild-type baseline,"[2]; narcoleptic mice, active period, 200 mg/kg PO",did not bring the wake amount to that of the wild-type baseline levels
same,Wakefulness,"[2]; narcoleptic mice, active period, 50 and 200 mg/kg PO",dose-dependently increase wakefulness
same,Wake promoting effect compared with test compound,"[2]; resting period, 200 mg/kg PO, genotypes not separated",roughly corresponds to 50 mg/kg of test compound
same,Wake promoting effects,"[2]; resting period, 50 and 200 mg/kg PO, genotypes not separated",modest
same,Effect on REM sleep,[2]; [10],did not strongly reduce REM sleep
"NC(=O)OC[C@H](N)Cc1ccccc1 [Test Compound, O-carbamoyl-(D)-phenylalaninol]",Ki,[3],14.2 µM
same,Hill coefficient,"[3]; HEK-hDAT cells, mean ± SEM",−0.77 ± 0.12
same,Ki,[4],81.5 µM
same,Hill coefficient,"[4]; HEK-hSERT cells, mean ± SEM",−2.28 ± 0.05
same,Hill coefficient,[5],−1.45 ± 0.34
same,Ki,[5]; read-out: [125I]RTI-55 Binding Ki,3.7 µM
same,IC50,[6],2.9 µM
same,IC50,[7],4.4 µM
same,Spontaneous activity compared with amphetamine,[1]; 100 mg/kg SC vs 2 mg/kg amphetamine,suppressed activities more efficiently than amphetamine
same,"Spontaneous activity (locomotor, rearing, stereotypical activities)","[1]; 10, 30, 100 mg/kg SC, 90 min post-injection",selectively reduced activity of the KO mice in a dose-dependent manner; also recorded: reduced activities in a dose-dependent fashion
same,Mean paw withdrawal latency,[8]; 0 hr (predose),5.17 ± 0.27 s
same,Mean paw withdrawal latency,[8]; 1 hr post-injection,6.33 ± 0.14 s
same,Mean paw withdrawal latency,[8]; 4 hr post-injection,6.06 ± 0.21 s
same,Mean paw withdrawal latency,[8]; 8 hr post-injection,5.63 ± 0.16 s
same,% of Antagonism (latency at time point / latency at 0 hr − 1) × 100,[8]; 1 hr post-injection,(22.3%^@)
same,% of Antagonism (latency at time point / latency at 0 hr − 1) × 100,[8]; 4 hr post-injection,(17.2%)
same,% of Antagonism (latency at time point / latency at 0 hr − 1) × 100,[8]; 8 hr post-injection,(8.8%)
same,Paw withdrawal latency to a thermal stimulus (in words),[8]; vs pre-injection (0 hr),significantly increased the paw withdrawal latency
same,Duration of continuous wakefulness,"[2]; narcoleptic mice, 50 mg/kg PO",up to 3 hours
same,Duration of continuous wakefulness,"[2]; narcoleptic mice, 100 mg/kg PO",≤ 4 h
same,Duration of continuous wakefulness,"[2]; narcoleptic mice, 150 mg/kg PO",≤ 5 h
same,Non-REM and REM sleep during the period of continuous wakefulness,"[2]; narcoleptic mice, 50-150 mg/kg PO, resting period",completely suppressed
same,Wake-promoting effects,"[2]; narcoleptic mice, active (dark) period (ZT 14), 50-150 mg/kg PO",much pronounced wake-promoting effects
same,Wake amounts,"[2]; narcoleptic mice, active period, 100 and 150 mg/kg PO",brought up to the levels of wild-type mice
same,Amounts of non-REM and REM sleep,"[2]; narcoleptic mice, active period, PO",brought down to the levels of wild-type mice
same,EEG patterns after administration,"[2]; resting period, 50-150 mg/kg PO, genotypes not separated",no abnormal EEG patterns
same,Effect on REM sleep,[2]; [10],potently reduced REM sleep
same,Duration of continuous wakefulness,[9]; 50 mg/kg PO,up to 3 hours
same,Duration of continuous wakefulness,[9]; 100 mg/kg PO,≤ 4 h
same,Duration of continuous wakefulness,[9]; 150 mg/kg PO,≤ 5 h
same,Non-REM and REM sleep during the period of continuous wakefulness,"[9]; 50-150 mg/kg PO, resting period",completely suppressed
same,Wake-promoting effects,"[9]; active (dark) period (ZT 14), 50-150 mg/kg PO",only small effects were observed
